Experimental data published in DBAASP.
≈ marks a conversion by molar mass, not a printed value. Where “and” joins values, the source holds several entries; their conditions need not be identical. Equal entries are not always repeated. One block for each compound: values may come before it.

Key:
Assay in all cases: ≥ marks a high value that may be exact or a test limit, other limits are often not marked, values filed in µg/mL are converted to µM
[1] = tested on: Clavibacter michiganensis subsp. michiganensis DSM 46294
[2] = tested on: Pectobacterium carotovorum subsp. carotovorum DSM 30168
[3] = tested on: Pseudomonas corrugata DSM 7228
[4] = tested on: Pseudomonas syringae pv. syringae DSM 10604
[5] = tested on: Pseudomonas syringae pv. tomato DC3000
[6] = tested on: Staphylococcus aureus 90857
[7] = tested on: Xanthomonas vesicatoria DSM 50861
Alternaria alternata = tested on: Alternaria alternata
Botrytis cinerea = tested on: Botrytis cinerea
Cladosporium herbarum = tested on: Cladosporium herbarum
[8] = tested on: Escherichia coli ATCC 11219
[9] = tested on: Klebsiella pneumoniae ATCC 10031
[10] = tested on: Pseudomonas aeruginosa ATCC 13388
[11] = tested on: Salmonella enterica subsp. enterica serovar Typhimurium ATCC 14028
[12] = tested on: Staphylococcus aureus ATCC 6538
[13] = tested on: Escherichia coli DSM 1103
[14] = tested on: Klebsiella pneumoniae DSM 681
[15] = tested on: Pseudomonas aeruginosa DSM 1128
[16] = tested on: Staphylococcus aureus ATCC 25923
[17] = tested on: Streptococcus pneumoniae DSM 11865
Escherichia coli W160-37 = tested on: Escherichia coli W160-37
[18] = tested on: Pseudomonas putida NCIM 2102
[19] = tested on: Saccharomyces cerevisiae ATCC 8530
[20] = tested on: Staphylococcus aureus ATCC 8530
[21] = tested on: Bacillus subtilis KCTC 3038
[22] = tested on: Candida albicans ATCC 10231
[23] = tested on: Cryptococcus neoformans ATCC 34881
[24] = tested on: Enterococcus faecalis ATCC 29212
[25] = tested on: Escherichia coli ATCC 27325
[26] = tested on: Micrococcus luteus ATCC 10240
[27] = tested on: Pseudomonas aeruginosa ATCC 27853
[28] = tested on: Saccharomyces cerevisiae ATCC 44774
[29] = tested on: Salmonella typhimurium KCTC 2370
[30] = tested on: Staphylococcus aureus ATCC 15752
[31] = tested on: Acinetobacter baumannii ATCC 19606
[32] = tested on: Enterobacter cloacae ATCC 49141
[33] = tested on: Escherichia coli ATCC 25922
Escherichia coli D21 = tested on: Escherichia coli D21
[34] = tested on: Staphylococcus aureus II ATCC 6538P

SMILES: CC[C@H](C)[C@H](NC(=O)[C@H](C)NC(=O)[C@H](CCCCN)NC(=O)[C@H](CCCCN)NC(=O)[C@H](CC(C)C)NC(=O)[C@H](Cc1ccccc1)NC(=O)[C@H](Cc1cnc[nH]1)NC(=O)[C@H](C)NC(=O)[C@H](CC(C)C)NC(=O)[C@H](C)N)C(=O)N[C@@H](CCCCN)C(=O)N[C@@H](CCCCN)C(N)=O [ALAHFLKKAIKK]
MIC (Alternaria alternata): ≥ 73.1 µM
MIC (Botrytis cinerea): ≥ 73.1 µM
MIC (Cladosporium herbarum): ≥ 73.1 µM
MIC [1]: 29.2 µM (≈ 40 µg/mL)
MIC [2]: 29.2 µM (≈ 40 µg/mL)
MIC [3]: 14.6 µM (≈ 20 µg/mL)
MIC [4]: 3.66 µM (≈ 5 µg/mL)
MIC [5]: 7.31 µM (≈ 9.99 µg/mL)
MIC [7]: 29.2 µM (≈ 40 µg/mL)

SMILES: CC[C@H](C)[C@H](NC(=O)CN)C(=O)N[C@@H](Cc1cnc[nH]1)C(=O)N[C@@H](CC(=O)O)C(=O)N[C@H](C(=O)N[C@@H](CC(C)C)C(=O)N[C@@H](CCCCN)C(=O)N[C@@H](Cc1ccc(O)cc1)C(=O)NCC(=O)N[C@@H](CCCCN)C(=O)N[C@@H](CCCN=C(N)N)C(=O)N[C@@H](CO)C(N)=O)[C@@H](C)CC [GIHDILKYGKRS]
MIC [8]: 10 µM (≈ 13.9 µg/mL)
MIC [9]: 10 µM (≈ 13.9 µg/mL)
MIC [10]: 20 µM (≈ 27.7 µg/mL)
MIC [11]: 20 µM (≈ 27.7 µg/mL)
MIC [12]: 10 µM (≈ 13.9 µg/mL)

SMILES: CC(C)C[C@H](NC(=O)[C@H](Cc1cnc[nH]1)NC(=O)[C@H](CCCN=C(N)N)NC(=O)[C@H](CC(C)C)NC(=O)[C@H](CC(C)C)NC(=O)[C@H](Cc1cnc[nH]1)NC(=O)[C@H](CCCN=C(N)N)NC(=O)[C@H](CC(C)C)NC(=O)[C@H](CC(C)C)NC(=O)[C@H](Cc1cnc[nH]1)NC(=O)[C@H](CCCN=C(N)N)NC(=O)[C@H](CC(C)C)NC(=O)[C@H](C)NC(=O)[C@H](CC(=O)O)NC(=O)[C@@H](N)CC(=O)O)C(=O)O [DDALRHLLRHLLRHL]
MIC [31]: > 100 µM
MIC [22]: 25 µM and > 12.5 µM
MIC [32]: ≥ 100 µM
MIC [33]: 100 µM (≈ 188 µg/mL)
MIC (Escherichia coli D21): ≥ 100 µM
MIC [27]: 100 µM (≈ 188 µg/mL)
MIC [34]: ≥ 100 µM

More lines, now with the values ahead:

MIC [1]: 1.6 µM (≈ 2.5 µg/mL)
MIC [2]: 6.39 µM (≈ 9.99 µg/mL)
MIC [3]: 0.0639 µM (≈ 0.0999 µg/mL)
MIC [4]: 0.0639 µM (≈ 0.0999 µg/mL)
MIC [5]: 6.39 µM (≈ 9.99 µg/mL)
MIC [6]: 6.25 µM (≈ 9.78 µg/mL)
MIC [7]: 0.0639 µM (≈ 0.0999 µg/mL)
SMILES: CC(C)C[C@H](NC(=O)[C@H](CC(C)C)NC(=O)[C@H](CCCN=C(N)N)NC(=O)[C@H](CCCCN)NC(=O)[C@H](CC(C)C)NC(=O)[C@H](CC(C)C)NC(=O)[C@H](CCCCN)NC(=O)[C@H](CC(C)C)NC(=O)[C@H](CCCN=C(N)N)NC(=O)[C@H](CCCCN)NC(=O)[C@H](CCCCN)NC(=O)[C@@H](N)CCCN=C(N)N)C(N)=O [RKKRLKLLKRLL]

MIC [13]: ≥ 157 µM
MIC [14]: ≥ 157 µM
MIC [15]: ≥ 157 µM
MIC [16]: > 157 µM
MIC [17]: ≥ 157 µM
SMILES: CC(C)C[C@H](NC(=O)[C@@H](NC(=O)[C@H](C)NC(=O)[C@H](C)NC(=O)[C@H](CCCN=C(N)N)NC(=O)CNC(=O)CNC(=O)[C@H](CCCN=C(N)N)NC(=O)[C@@H](NC(=O)[C@H](CCCN=C(N)N)NC(=O)[C@H](C)NC(=O)[C@H](Cc1ccc(O)cc1)NC(=O)[C@H](Cc1ccc(O)cc1)NC(=O)[C@H](CCCCN)NC(=O)[C@H](CCC(N)=O)NC(=O)[C@@H](N)CC(C)C)C(C)C)C(C)C)C(=O)N[C@@H](CO)C(=O)O [LQKYYARVRGGRAAVLS]

MIC (Escherichia coli W160-37): ≥ 48.1 µM
MIC [18]: ≥ 48.1 µM
MIC [19]: ≥ 80.2 µM
MIC [20]: ≥ 40.1 µM
SMILES: CC[C@H](C)[C@@H]1NC(=O)[C@@H]2CCCN2C(=O)[C@H](CC(C)C)NC(=O)[C@@H]2CCCN2C(=O)[C@H]([C@@H](C)CC)NC(=O)[C@H](C)NC(=O)[C@H](Cc2ccc(O)cc2)NC(=O)[C@@H](NC(=O)[C@@H](NC(=O)[C@@H](N)CCCN=C(N)N)C(C)C)CSSC[C@@H](C(N)=O)NC1=O [RVCYAIPLPIC]

MIC [21]: ≥ 35.7 µM
MIC [22]: 35.7 µM (≈ 64 µg/mL)
MIC [23]: ≥ 35.7 µM
MIC [24]: > 35.7 µM
MIC [25]: ≥ 35.7 µM
MIC [26]: ≥ 35.7 µM
MIC [27]: > 35.7 µM
MIC [28]: ≥ 35.7 µM
MIC [29]: ≥ 35.7 µM
MIC [30]: ≥ 35.7 µM
SMILES: CC(C)[C@H](NC(=O)[C@H](CCCCN)NC(=O)[C@H](CCC(=O)O)NC(=O)[C@H](CCCCN)NC(=O)[C@@H](NC(=O)[C@@H](NC(=O)[C@H](CCC(N)=O)NC(=O)[C@@H](NC(=O)[C@@H](NC(=O)[C@@H]1CCCN1C(=O)[C@H](CCCN=C(N)N)NC(=O)[C@@H](NC(=O)[C@@H](NC(=O)[C@@H](N)CCCN=C(N)N)C(C)C)C(C)C)C(C)C)C(C)C)C(C)C)C(C)C)C(=O)N[C@@H](CCCN=C(N)N)C(=O)O [RVVRPVVQVVKEKVR]
